Source: the CheMixHub viscosity set

Assay: xn = mol fraction of the nth substance listed

CCCCBr + c1ccccc1
101 kPa
Settings | viscosity [mPa·s]
298.15 K, x1 = 0.066 | 0.588
298.15 K, x1 = 0.1 | 0.583
298.15 K, x1 = 0.134 | 0.574
308.15 K, x1 = 0.066 | 0.518
308.15 K, x1 = 0.1 | 0.515
308.15 K, x1 = 0.134 | 0.51
308.15 K, x2 = 0.094 | 0.5122
308.15 K, x2 = 0.2084 | 0.5022
308.15 K, x2 = 0.2997 | 0.4939
308.15 K, x2 = 0.395 | 0.4879
308.15 K, x2 = 0.5053 | 0.4828
308.15 K, x2 = 0.5954 | 0.4805
308.15 K, x2 = 0.6993 | 0.4823
308.15 K, x2 = 0.8012 | 0.4853
308.15 K, x2 = 0.9023 | 0.4943
318.15 K, x1 = 0.066 | 0.459
318.15 K, x1 = 0.1 | 0.457
318.15 K, x1 = 0.134 | 0.454
323.15 K, x1 = 0.066 | 0.432
323.15 K, x1 = 0.1 | 0.431
323.15 K, x1 = 0.134 | 0.428

CCN(C=O)CC + O
298.16 K, 101 kPa
Settings | viscosity [mPa·s]
x2 = 0.1029 | 1.23
x2 = 0.247 | 1.47
x2 = 0.3904 | 1.84
x2 = 0.5426 | 2.38
x2 = 0.6681 | 2.83
x2 = 0.7344 | 3
x2 = 0.7646 | 3.01
x2 = 0.8236 | 2.9
x2 = 0.8813 | 2.53

CC(=O)OC(C)C + CCc1ccccc1
viscosity [mPa·s], 101 kPa
Settings | x1 = 0.1056 | x1 = 0.2037 | x1 = 0.3116 | x1 = 0.4048 | x1 = 0.5112 | x1 = 0.6089 | x1 = 0.7156 | x1 = 0.811 | x1 = 0.9403
303.15 K | 0.582 | 0.567 | 0.551 | 0.538 | 0.523 | 0.51 | 0.496 | 0.484 | 0.467
313.15 K | 0.523 | 0.509 | 0.494 | 0.482 | 0.469 | 0.457 | 0.445 | 0.434 | 0.42

CCCC(C)O (centres undefined) + CC(=O)N(C)C
viscosity [mPa·s], 100 kPa
Settings | 298.15 K | 313.15 K
x2 = 0.0565 | 2.917 | 1.821
x2 = 0.1029 | 2.592 | 1.693
x2 = 0.2137 | 2.057 | 1.432
x2 = 0.3057 | 1.757 | 1.276
x2 = 0.409 | 1.528 | 1.145
x2 = 0.5031 | 1.387 | 1.053
x2 = 0.6045 | 1.255 | 0.971
x2 = 0.7015 | 1.158 | 0.904
x2 = 0.7996 | 1.068 | 0.842
x2 = 0.9005 | 0.987 | 0.784
x2 = 0.9581 | 0.943 | –

C1CCNCC1 + CCOC(C)=O
303.15 K, 101 kPa
Settings | viscosity [mPa·s]
x1 = 0.1 | 0.45
x1 = 0.2 | 0.49
x1 = 0.3 | 0.53
x1 = 0.4 | 0.565
x1 = 0.5 | 0.625
x1 = 0.6 | 0.71
x1 = 0.7 | 0.795
x1 = 0.8 | 0.895
x1 = 0.9 | 1.04

CC(CC(C)(C)C)CC(C)(C)CC(C)(C)C (centres undefined) + C1CC[C@H]2CCCC[C@H]2C1
viscosity [mPa·s], 100 kPa
Settings | x2 = 0.125 | x2 = 0.25 | x2 = 0.375 | x2 = 0.5 | x2 = 0.625 | x2 = 0.75 | x2 = 0.875
293.15 K | 3.68 | 3.64 | 3.559 | 3.505 | 3.456 | 3.402 | 3.377
303.15 K | 2.919 | 2.871 | 2.83 | 2.797 | 2.765 | 2.736 | 2.713
313.15 K | 2.364 | 2.334 | 2.303 | 2.279 | 2.259 | 2.254 | 2.228
323.15 K | 1.961 | 1.934 | 1.911 | 1.897 | 1.884 | 1.876 | 1.87

C1CC[C@H]2CCCC[C@H]2C1 + CC1CCCCC1
viscosity [mPa·s], 100 kPa
Settings | x2 = 0.125 | x2 = 0.25 | x2 = 0.375 | x2 = 0.5 | x2 = 0.625 | x2 = 0.75 | x2 = 0.875
293.15 K | 2.749 | 2.287 | 1.867 | 1.541 | 1.3 | 1.076 | 0.894
303.15 K | 2.241 | 1.912 | 1.567 | 1.312 | 1.096 | 0.935 | 0.776
313.15 K | 1.858 | 1.6 | 1.326 | 1.123 | 0.944 | 0.824 | 0.674
323.15 K | 1.578 | 1.367 | 1.168 | 0.986 | 0.837 | 0.701 | 0.604
